This is an account of results in patent US9597292B2, “Oral dosage forms of methyl hydrogen fumarate and prodrugs thereof” (XenoPort, Inc., priority 2012, dated 2017).

Format in all cases: in vivo, human
Series [1] is described as follows: Safety and tolerability, adverse events in single-dose food effect study (Example 8). To be noted: for Feeling Hot (subjects reporting) / Flushing (subjects reporting): 12 subjects. An excerpt:
(§1) Twenty-four healthy adult volunteers (males and females) participated in the study. Twelve of the subjects received a dosage form of Example 1, once in a fed condition and once in a fasted condition, with a two-week washout between treatments. Twelve other subjects received a dosage form of Example 2, once in a fed condition and once in a fasted condition, with a two-week washout between treatments. The fasted dosing was achieved by dosing the subject following an overnight fast while the fed dosing was achieved by dosing the subject after consuming a high fat-content breakfast.

Series [2] in a line: Safety and tolerability, adverse events in single-dose food effect study (Example 15). The following applies: for Feeling Hot (subjects reporting) / Flushing (subjects reporting): 12 subjects. An excerpt:
(§2) Twelve healthy adult volunteers (males and females) participated in the study. All twelve subjects received a dosage form of Example 9, once in a fed condition and once in a fasted condition, with a two-week washout between treatments. The fasted dosing was achieved by dosing the subject following an overnight fast while the fed dosing was achieved by dosing the subject after consuming a high fat-content breakfast.

Series [3] can be described thus: Single-dose food effect pharmacokinetic study of sustained release dosage form in healthy adult subjects (Example 15). To be noted: promoiety after oral dosing of the formulation.
Excerpt: as §2
(§3) Urine samples were collected from all subjects prior to dosing, and complete urine output was obtained at the 0-4, 4-8, 8-12, 12-24, 24-36, 36-48, 48-72, 72-96 and 96-120 hour intervals after dosing. Blood samples were quenched immediately with acetonitrile and frozen.

Series [4] can be described thus: Single-dose food effect pharmacokinetic study in healthy adult subjects (Example 8). To be noted: promoiety after oral dosing of Example 2 formulation.
Excerpt: as §1, §3

Where [5] appears, read: single 200 mg oral dose, fed and fasted.

Take `CCN(CC)C(=O)COC(=O)/C=C/C(=O)OC` [(N,N-Diethylcarbamoyl)methyl methyl (2E)but-2-ene-1,4-dioate]: the “Feeling Hot (subjects reporting)” value in series [1] (Fasted), in series [1] (Fed), in series [2] (Fasted) and in series [2] (Fed) was “no subjects” throughout. For the same molecule, the “Flushing (subjects reporting)” value in series [1] (Fasted) was “No subjects”; in series [1] (Fed) it was “One”; in series [2] (Fasted), “No subjects”; in series [2] (Fed), “Two”. Moreover, the “tolerability during the trial” value in series [1] (setting [5]) and in series [2] (setting [5]) was “well tolerated” in each case.
For `CCN(CC)C(=O)CO` [Promoiety], the “half life of clearance from blood” value in series [3] and in series [4] was “around 3 hours” each time.
